Measurements from patent US7833805B2, “Selectively permeable membranes on porous substrates” (University of Cincinnati, priority 2004, dated 2010).

Columns and labels:
gastric H/K ATPase [1] = biological target: T1, gastric H/K ATPase (Oryctolagus cuniculus, UniProt P27112); assay: H+ transport (acidification) by rabbit gastric H/K ATPase vesicles reconstituted in phospholipid-coated PC filters; format: biochemical; settings: 100 μM SCH28080, rabbit gastric vesicles, P<0.02
T1 construct: Hog and stimulated rabbit gastric membrane vesicles are isolated according to methods known in the art; from tissue; host or cells: stimulated rabbit gastric membrane vesicles
T1 sequence (P27112 whole entry): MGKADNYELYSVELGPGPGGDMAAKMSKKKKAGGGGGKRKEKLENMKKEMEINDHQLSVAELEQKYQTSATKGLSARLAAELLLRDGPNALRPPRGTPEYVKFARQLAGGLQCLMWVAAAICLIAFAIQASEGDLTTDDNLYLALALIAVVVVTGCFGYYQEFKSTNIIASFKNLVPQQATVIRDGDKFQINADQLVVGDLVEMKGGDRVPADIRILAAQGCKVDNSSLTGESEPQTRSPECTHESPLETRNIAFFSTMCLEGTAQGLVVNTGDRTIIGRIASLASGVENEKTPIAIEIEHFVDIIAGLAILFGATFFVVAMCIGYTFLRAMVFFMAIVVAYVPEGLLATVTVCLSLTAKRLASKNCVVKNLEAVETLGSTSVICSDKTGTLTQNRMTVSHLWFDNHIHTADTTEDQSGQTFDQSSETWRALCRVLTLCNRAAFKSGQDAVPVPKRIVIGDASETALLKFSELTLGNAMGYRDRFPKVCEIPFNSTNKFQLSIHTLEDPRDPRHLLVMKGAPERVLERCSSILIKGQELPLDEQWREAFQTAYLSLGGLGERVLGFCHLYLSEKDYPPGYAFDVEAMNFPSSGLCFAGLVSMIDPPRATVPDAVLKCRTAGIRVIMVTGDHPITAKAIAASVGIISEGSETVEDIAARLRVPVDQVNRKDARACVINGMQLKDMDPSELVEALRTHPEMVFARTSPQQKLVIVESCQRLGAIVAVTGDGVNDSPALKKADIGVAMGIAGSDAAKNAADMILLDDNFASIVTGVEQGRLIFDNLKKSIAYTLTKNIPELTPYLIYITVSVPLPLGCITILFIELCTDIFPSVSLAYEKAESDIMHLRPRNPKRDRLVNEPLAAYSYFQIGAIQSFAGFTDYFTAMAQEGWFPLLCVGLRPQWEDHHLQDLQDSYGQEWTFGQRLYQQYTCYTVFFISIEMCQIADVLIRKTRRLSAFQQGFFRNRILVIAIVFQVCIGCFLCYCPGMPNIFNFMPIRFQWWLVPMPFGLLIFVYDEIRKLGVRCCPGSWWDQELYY
T1 sequence (P18597 whole entry partner): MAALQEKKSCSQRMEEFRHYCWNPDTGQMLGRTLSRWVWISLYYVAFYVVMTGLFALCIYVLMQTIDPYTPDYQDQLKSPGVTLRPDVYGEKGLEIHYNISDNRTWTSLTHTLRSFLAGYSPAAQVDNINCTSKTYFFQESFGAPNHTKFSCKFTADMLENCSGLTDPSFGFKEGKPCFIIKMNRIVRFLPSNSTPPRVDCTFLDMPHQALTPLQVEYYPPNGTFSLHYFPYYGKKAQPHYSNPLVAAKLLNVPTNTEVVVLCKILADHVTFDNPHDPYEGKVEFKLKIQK
Experimental: (§1) Hog and stimulated rabbit gastric membrane vesicles are isolated according to methods known in the art (Saccomani et al. Biochim. Biophys. Acta 465 (1977) 311-330, Cuppoletti, et al. J. Biol. Chem. 259 (1984) 14952-1 4959). A lipid bilayer is made on 0.4 μm polycarbonate filters (area=0.11 cm^2) in Multiscreen Caco-2 filter plates. […] of 40 mg/ml 3:1 POPS:POPE in n-decane is added to the filter (inner well) and after 30 min 100 mM K-gluconate solution is added to both sides (inner & outer wells). After 2 hrs, resistance is measured with a multimeter and Ag/AgCl electrodes to ensure that a bilayer had formed. The K-gluconate solution in the inner well is removed and 5 μl of hog or stimulated rabbit gastric vesicles are added to the inner well and left for 1 hr. Resistance is then measured in 100 mM K-gluconate, KCL, NaCl and NMDGCI. To measure H^+ transport, 200 μl 10 mM KCL is added to the outer well and 100 μl of 100 mM KCL, 10 mM HEPES pH 7.4 is added to the inner well. pH of the medium in the outer well (pHo) is measured using a PHR-146 pH Electrode (LAZAR Research Labs. Los Angeles, Calif.) and an Accumet pH meter 910 (Fisher, Pittsburgh, Pa.). When the pHo is almost constant, 5 μl 100 mM MGATP solution and 1 μl 10 mg/ml valinomycin are added to the inner well and pHo was followed. […] The change in pHo over time is recorded using AXOTAPE (Union City, Calif.).

[2] = test system: gastric proton pump H/K ATPase; assay: Example 1: ATP-dependent transport of acid across the bilayer with reconstituted gastric proton pump; format: biochemical; settings: 100 μm SCH-28080
From the text: This example illustrates an embodiment of bilayer formation, membrane transport reconstitution and testing for functionality. The bilayer is formed over pores of a polycarbonate substrate comprising naturally present pores or drilled holes. Millipore micro porous polycarbonates of various pore sizes (0.4, 3, 5, and 8 μm, e.g.) are commercially available, and a multi-well porous plastic plate with 10-100 μm Lenox-laser drilled holes (1/well) is available from Procter & Gamble Co. and is used for stable bilayer formation. Techniques for bilayer preparation are known by those of ordinary skill in the art. […] The bilayer is verified according to the gramicidin-D (a cation selective antibiotic) method wherein electrical resistance is monitored to observe the effect of gramicidin in reducing the resistance of the membrane. Current flow is measured by placing one electrode in the desired well and one in the surrounding liquid outside the well. […]
The verified bilayer is incubated with vesicles comprising H/K ATPase or Kv1.5 potassium channels. 3 μl of vesicles is added to each well which was determined to have a verified bilayer. Spontaneous fusion with the bilayer is allowed to proceed for 30 minutes to one hour, at which point H/K ATPase induced acidification or potassium ion currents across the bilayer membrane are measured. […] The current is measured as described earlier, after one hour. […]

gastric H/K ATPase [3] = biological target: T2, gastric H/K ATPase (Sus scrofa, UniProt P19156); assay: H+ transport (acidification) by hog gastric H/K ATPase vesicles reconstituted in phospholipid-coated PC filters; format: biochemical
T2 construct: Hog and stimulated rabbit gastric membrane vesicles are isolated according to methods known in the art; from tissue; host or cells: hog gastric membrane vesicles
T2 sequence (P19156 whole entry): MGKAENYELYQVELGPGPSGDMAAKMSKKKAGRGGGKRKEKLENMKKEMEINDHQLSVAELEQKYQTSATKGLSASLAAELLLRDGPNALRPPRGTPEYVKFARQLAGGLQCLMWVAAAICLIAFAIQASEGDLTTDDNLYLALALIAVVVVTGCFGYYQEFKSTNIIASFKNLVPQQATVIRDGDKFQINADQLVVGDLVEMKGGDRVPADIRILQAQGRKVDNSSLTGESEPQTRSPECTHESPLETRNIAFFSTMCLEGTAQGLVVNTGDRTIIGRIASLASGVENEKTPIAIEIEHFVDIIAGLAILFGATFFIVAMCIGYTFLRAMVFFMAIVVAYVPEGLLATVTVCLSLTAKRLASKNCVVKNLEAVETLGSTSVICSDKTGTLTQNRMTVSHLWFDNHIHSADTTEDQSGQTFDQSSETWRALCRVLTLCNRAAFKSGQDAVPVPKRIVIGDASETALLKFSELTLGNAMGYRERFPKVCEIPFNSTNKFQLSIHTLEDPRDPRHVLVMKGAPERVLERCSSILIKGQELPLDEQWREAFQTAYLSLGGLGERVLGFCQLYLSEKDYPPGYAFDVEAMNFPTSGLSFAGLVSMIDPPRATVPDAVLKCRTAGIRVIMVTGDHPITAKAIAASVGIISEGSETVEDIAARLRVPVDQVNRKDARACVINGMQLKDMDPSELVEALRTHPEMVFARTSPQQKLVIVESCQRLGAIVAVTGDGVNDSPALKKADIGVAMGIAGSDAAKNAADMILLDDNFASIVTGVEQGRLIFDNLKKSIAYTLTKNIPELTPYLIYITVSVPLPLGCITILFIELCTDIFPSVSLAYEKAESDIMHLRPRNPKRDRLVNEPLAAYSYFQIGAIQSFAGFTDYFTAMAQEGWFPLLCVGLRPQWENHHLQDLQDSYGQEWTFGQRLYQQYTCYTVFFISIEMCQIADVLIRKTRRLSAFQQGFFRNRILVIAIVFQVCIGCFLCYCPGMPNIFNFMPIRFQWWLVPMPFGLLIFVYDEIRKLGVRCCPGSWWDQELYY
T2 sequence (P18434 whole entry partner): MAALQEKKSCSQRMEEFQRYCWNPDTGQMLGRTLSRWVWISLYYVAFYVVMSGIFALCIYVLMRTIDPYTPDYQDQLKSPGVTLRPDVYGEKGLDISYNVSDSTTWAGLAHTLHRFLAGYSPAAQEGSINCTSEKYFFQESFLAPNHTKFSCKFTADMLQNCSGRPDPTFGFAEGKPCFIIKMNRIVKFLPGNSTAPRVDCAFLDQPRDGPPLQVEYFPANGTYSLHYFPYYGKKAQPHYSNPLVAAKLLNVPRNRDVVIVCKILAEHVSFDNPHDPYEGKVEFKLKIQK
Experimental: as §1

Kv1.5 K+ channels [4] = biological target: T3, Kv1.5 K+ channels (Homo sapiens, UniProt P22460); assay: Kv1.5 K+ channel vesicles reconstituted in phospholipid-coated leached PLLA membranes, resistance measurement; format: biochemical; settings: 1 μM compound B, KCl, n=8; PL alone 7.39, PL+Kv1.5 vesicles 0.55 MΩ
T3 construct: expressed in transfected cells; host or cells: Ltk- mouse fibroblast cells, stably transfected, dexamethasone-induced; plasma membrane vesicles
T3 sequence (P22460 whole entry): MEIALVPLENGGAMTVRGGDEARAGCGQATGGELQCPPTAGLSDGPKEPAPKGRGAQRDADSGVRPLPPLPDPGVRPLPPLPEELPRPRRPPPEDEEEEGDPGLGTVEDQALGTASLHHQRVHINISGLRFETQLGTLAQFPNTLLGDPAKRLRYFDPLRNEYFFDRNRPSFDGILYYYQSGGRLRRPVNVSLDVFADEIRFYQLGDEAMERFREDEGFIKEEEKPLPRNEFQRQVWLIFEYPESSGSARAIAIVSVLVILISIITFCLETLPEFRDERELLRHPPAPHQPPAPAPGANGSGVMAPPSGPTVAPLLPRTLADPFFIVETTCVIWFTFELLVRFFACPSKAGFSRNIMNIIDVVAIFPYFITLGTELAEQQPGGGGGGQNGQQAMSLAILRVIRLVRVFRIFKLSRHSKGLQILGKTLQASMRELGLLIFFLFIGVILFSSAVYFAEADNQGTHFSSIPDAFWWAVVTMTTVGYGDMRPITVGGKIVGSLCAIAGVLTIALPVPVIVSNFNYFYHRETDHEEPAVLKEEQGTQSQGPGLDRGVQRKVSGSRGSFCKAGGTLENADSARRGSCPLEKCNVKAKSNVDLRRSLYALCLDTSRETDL
Experimental: (§2) Bilayer formation is studied using PC, PETE and PLLA membranes (area=0.3 cm^2). Phospholipid bilayers are made by adding […] of 3:1 POPS:POPE (40 mg/ml) in n-decane to the membranes and waiting for 30 min. 100 mM KCL/10 mM HEPES (pH 7.4), is then added to both sides of the membrane (150 μl inside insert or well; 200 outside solution) and left for 30 minutes. A multimeter and Ag/AgCl reference electrodes are used to measure the resistance across the phospholipid-coated membranes. When gramicidin D is used, it is mixed with the lipids to a final concentration of 1 μg/ml. 10 μl of the lipid/gramicidin mixture is added to the membranes. After 30 minutes medium is added to both sides of the lipid-coated membrane (both inner and outer wells) and left for another 30 minutes. Resistances of the lipid-coated membranes are measured with two different media bathing the lipid bilayer on both sides: 100 mM KCl/10 mM HEPES (pH 7.4) and 100 mMNMDGCI/10 mM HEPES (pH 7.4). Reconstitution of gramicidin D is also done using the 96-well plastic plate with laser drilled holes and current is measured as described below.
Reconstitution of Kv1.5 K^+ channels is also carried out using lipid coated PLLA membranes (area=0.3 cm2) and resistance is measured as described in the previous section. Effects of compound B are also tested.

Kv1.5 K+ channels [5] = biological target: T3, Kv1.5 K+ channels; assay: Kv1.5 K+ channel vesicles reconstituted in phospholipid bilayers in 50 μm laser-drilled holes of a 96-well plastic plate, current measurement; format: biochemical
Experimental: The verified bilayer is incubated with vesicles comprising H/K ATPase or Kv1.5 potassium channels. 3 μl of vesicles is added to each well which was determined to have a verified bilayer. Spontaneous fusion with the bilayer is allowed to proceed for 30 minutes to one hour, at which point H/K ATPase induced acidification or potassium ion currents across the bilayer membrane are measured. A desired amount of […] is added to the well (for example, add 90 μl of 100 mM KCl for […], add 92.5 μl of 100 MM KCl for 750 nM). The well tray is placed back into the holder with the 100 mM KCl and current flow is measured as before. Add a desired amount of a suitable 10 μM inhibitor to achieve a final desired concentration with the final volume of 100 μl. When the gastric proton pump H/K ATPase is reconstituted on the bilayer over the pores, ATP-dependent transport of acid across the bilayer is observed that can be inhibited by 100 μm SCH-28080 (a specific inhibitor of the H/K ATPase). The current is measured as described earlier, after one hour. […] Ion currents are not present when the vesicles lack Kv1.5 or when Kv1.5 vesicles are boiled.
To investigate reconstitution of ion channels, plasma membrane vesicles containing Kv1.5, K^+ channels are prepared from an Ltk^− cell line (mouse fibroblast cells) stably overexpressing Kv1.5 K^+ channels under the control of a dexamethasone promoter as previously described (Matsuno, et al. Biochem. Biophys. Acta 1665 (2004) 184-190). Dexamethasone-specific induction of channel expression is totally specific for Kv1.5 channels. […] A 96-well plastic plate with laser drilled pores varying from 10-100 μm (1/well) is used. Well area is 0.3 cm^2. The phospholipid bilayer is made by adding 5 μl of 40 mg/ml 3:1 POPS:POPE in n-decane to each well. After 30 min 100 mM KCl/20 mM HEPES (pH 7.4) is added to both sides of the bilayer (both inner and outer wells). After a further 30 min, the solution from the inner well is removed and plasma membrane vesicles (5 μl) containing Kv1.5 K^+ channels are added to the lipid coated wells. After 30 min, 100 mM KCl/20 mM HEPES (pH 7.4) is returned to the well and currents across the bilayer are measured with an HS-2A headstage and Gene Clamp 500 amplifier (Axon Instruments, Foster City, Calif.) and filtered at 50 Hz. Voltages ranging from −80 to +70 mV are applied in 10-mV increments for 200 msec and electrical currents are recorded using pCLAMP version 5.5. When indicated, compound B, an inhibitor of Kv1.5 K^+ channels (see U.S. Pat. No. 6,174,908) is added.

[6] = Gramicidin D reconstituted in the phospholipid bilayer in 50 μm holes of the 96-well plastic plate, current measurement; settings: KCl medium, +70 mV
Experimental: as §2, with “below. […]” for “below.”

[7] = Ion flux across the inventive membrane with gramicidin D as ionophore
[8] = Assay of lipid bilayer formation: resistance across phospholipid-coated porous membranes with gramicidin D
Experimental: as §2

Cc1nc2c(OCc3ccccc3)cccn2c1CC#N [SCH28080]
effect on H+ flux (rate of acidification) (gastric H/K ATPase [1]): significantly reduces | effect on ATP-dependent transport of acid across the bilayer [2]: inhibited | effect on H+ flux (rate of acidification) (gastric H/K ATPase [3]; 100 μM SCH28080, hog gastric vesicles, P<0.05): significantly reduces | effect on acidification of outer well medium (representative experiment) (gastric H/K ATPase [3]; 100 μM SCH28080, hog vesicles, 5 mM MgATP, 100 μg/ml valinomycin): blocks acidification

COc1ccc(CCN2C(=O)CSC2c2ccc(C)c(C)c2)cc1 (centres unmarked) [compound B, 2-(3,4-dimethyphenyl)-3-[2-(4-methoxyphenyl)ethyl]-thiazolidin4-one]
resistance of PLLA membrane + phospholipids + Kv1.5 vesicles after inhibitor (Kv1.5 K+ channels [4]): 4.13±0.52 MΩ | effect on Kv1.5 K+ channel currents (I-V curve) (Kv1.5 K+ channels [5]; 200 nM and 500 nM compound B): inhibited | effect on Kv1.5 K+ current after addition of Kv1.5 vesicles (Kv1.5 K+ channels [5]; 1 μM compound B, P<0.001): inhibited | effect on potassium ion currents of membrane fused with Kv1.5 vesicles (Example 1) (Kv1.5 K+ channels [5]; concentration not given): inhibited | IC50 (Kv1.5 K+ channels [5]; sigmoidal dose-response plot, n=6, 100 mM KCl/20 mM HEPES pH 7.4, read-out: IC50, Kv1.5-mediated K+ currents expressed as ΔI at 70 mV as % maximum): 170 ± 40 nM

gramicidin D
current with gramicidin D [6]: about 30 μVA | flux across the inventive membrane [7]: 10^8 ions per second, per gramicidin D molecule | resistance with gramicidin D, PETE membranes ([8]; KCl, n=5, PL alone 39.25 MΩ): 5.41±1.11 MΩ | change of resistance with gramicidin D, PETE membranes ([8]; NMDGCl): did not change | resistance after gramicidin D, PC filters with 3, 5 and 8 μm pores ([8]; presence of K+ (100 mM KCl), P<0.005): virtually zero | resistance on addition of gramicidin D, leached PLLA membranes ([8]; presence of K+, n=6, PL alone 11.38 MΩ): 0.23±0.15 MΩ | change of resistance on addition of gramicidin D, leached PLLA membranes ([8]; presence of NMDG+): unaffected | reduction of resistance by gramicidin D, PC filters with 3, 5 and 8 μm pores ([8]; presence of NMDG+ (impermeant cation)): not
